Assay results published in PubChem BioAssay AID256 (DTP/NCI, 2004).
Several values for one entry are separate records, joined by “and”; a condition that tells them apart may be missing. Identical values can stand only once. Toxic doses and inconclusive results are not listed.

System: CD2F1 mice, L1210 leukemia ip, survival T/C
Test: NCI In Vivo Anticancer Drug Screen. Data for tumor model L1210 Leukemia (intraperitoneal) in CD2F1 (CDF1) mice
Settings: higher = longer survival
Summary of the method: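 Tumor-bearing mice (transplanted tumor) were split into treated and vehicle control groups, and the measured endpoint of each treated group was divided by that of its vehicle controls.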

[1] = endpoint: mean survival time, dose: 100.0 mg/kg/injection, schedule: Q04DX002 (ip), vehicle: saline with Tween-80
[2] = endpoint: mean survival time, dose: 200.0 mg/kg/injection, schedule: Q04DX002 (ip), vehicle: saline with Tween-80
[3] = endpoint: mean survival time, dose: 100.0 mg/kg/injection, schedule: Q04DX003 (ip), vehicle: saline
[4] = endpoint: mean survival time, dose: 200.0 mg/kg/injection, schedule: Q04DX003 (ip), vehicle: saline
[5] = endpoint: mean survival time, dose: 400.0 mg/kg/injection, schedule: Q04DX003 (ip), vehicle: saline
[6] = endpoint: mean survival time, dose: 100.0 mg/kg/injection, schedule: Q01DX009 (ip), vehicle: saline with Tween-80
[7] = endpoint: mean survival time, dose: 200.0 mg/kg/injection, schedule: Q01DX009 (ip), vehicle: saline with Tween-80
[8] = endpoint: mean survival time, dose: 100.0 mg/kg/injection, schedule: Q04DX003 (ip), vehicle: saline with Tween-80
[9] = endpoint: mean survival time, dose: 200.0 mg/kg/injection, schedule: Q04DX003 (ip), vehicle: saline with Tween-80
[10] = endpoint: mean survival time, dose: 400.0 mg/kg/injection, schedule: Q04DX003 (ip), vehicle: saline with Tween-80
[11] = endpoint: mean survival time, dose: 400.0 mg/kg/injection, schedule: Q01DX009 (ip), vehicle: saline with Tween-80
[12] = endpoint: mean survival time, dose: 50.0 mg/kg/injection, schedule: Q04DX002 (ip), vehicle: saline with Tween-80
[13] = endpoint: mean survival time, dose: 50.0 mg/kg/injection, schedule: Q04DX003 (ip), vehicle: saline with Tween-80

COc1cc2c(cc1OC)C(Cc1ccc([N+](=O)[O-])cc1)=NCC2
T/C (endpoint: mean survival time, dose: 100.0 mg/kg/injection, schedule: Q01DX001 (ip), vehicle: saline): 96 % of control
T/C (endpoint: mean survival time, dose: 200.0 mg/kg/injection, schedule: Q01DX001 (ip), vehicle: saline): 96 % of control
T/C (endpoint: mean survival time, dose: 400.0 mg/kg/injection, schedule: Q01DX001 (ip), vehicle: saline): 102 % of control

Nc1ncn(C2OC(COC(=O)c3ccccc3)C(OC(=O)c3ccccc3)C2OC(=O)c2ccccc2)c(=O)n1 (centres undefined)
T/C (endpoint: mean survival time, dose: 1.56 mg/kg/injection, schedule: Q01DX009 (ip), vehicle: saline): 108 % of control
T/C (endpoint: mean survival time, dose: 6.25 mg/kg/injection, schedule: Q01DX009 (ip), vehicle: saline): 164 % of control and 170 % of control
T/C (endpoint: mean survival time, dose: 12.5 mg/kg/injection, schedule: Q01DX009 (ip), vehicle: saline): 205 % of control and 227 % of control
T/C (endpoint: mean survival time, dose: 25.0 mg/kg/injection, schedule: Q01DX009 (ip), vehicle: saline): 115 % of control and 124 % of control
T/C (endpoint: mean survival time, dose: 50.0 mg/kg/injection, schedule: Q01DX009 (ip), vehicle: saline): 91 % of control and 93 % of control

CCCCOC(=O)c1c(C(=O)OCCCC)c(-c2ccccc2)c2c(c1-c1ccccc1)-c1cccc3cccc-2c13
T/C [1]: 97 % of control
T/C [2]: 86 % of control
T/C (endpoint: mean survival time, dose: 400.0 mg/kg/injection, schedule: Q04DX002 (ip), vehicle: saline with Tween-80): 90 % of control

N=c1ccccn1CCO
T/C (endpoint: mean survival time, dose: 75.0 mg/kg/injection, schedule: Q01DX001 (ip), vehicle: saline): 100 % of control
T/C (endpoint: mean survival time, dose: 150.0 mg/kg/injection, schedule: Q01DX001 (ip), vehicle: saline): 108 % of control

O=C(/C=C/c1ccccc1)N1CCOCC1
T/C (endpoint: mean survival time, dose: 50.0 mg/kg/injection, schedule: Q04DX003 (ip), vehicle: saline): 102 % of control
T/C [3]: 96 % of control
T/C [4]: 100 % of control

CCC/C=C\CC(C)C(C)CC (centres undefined)
T/C [3]: 101 % of control
T/C [4]: 108 % of control
T/C [5]: 104 % of control

CN(C)c1ccc(N=Nc2cccc(C(=O)[O-])c2)cc1.CN(C)c1ccc(N=Nc2cccc(C(=O)[O-])c2)cc1.NC1CCCCC1N.O=[N+]([O-])O.[Pt+4]
T/C (endpoint: median survival time, dose: 3.12 mg/kg/injection, schedule: Q04DX003 (ip), vehicle: saline with Tween-80): 104 % of control and 108 % of control
T/C (endpoint: median survival time, dose: 6.25 mg/kg/injection, schedule: Q04DX003 (ip), vehicle: saline with Tween-80): 105 % of control and 110 % of control
T/C (endpoint: median survival time, dose: 12.5 mg/kg/injection, schedule: Q04DX003 (ip), vehicle: saline with Tween-80): 120 % of control and 105 % of control
T/C (endpoint: median survival time, dose: 25.0 mg/kg/injection, schedule: Q04DX003 (ip), vehicle: saline with Tween-80): 110 % of control
T/C (endpoint: median survival time, dose: 100.0 mg/kg/injection, schedule: Q04DX003 (ip), vehicle: saline with Tween-80): 212 % of control and 313 % of control
T/C (endpoint: median survival time, dose: 200.0 mg/kg/injection, schedule: Q04DX003 (ip), vehicle: saline with Tween-80): 361 % of control

FC(F)(F)COP1(OCC(F)(F)F)=NP(OCC(F)(F)F)(OCC(F)(F)F)=NP(c2ccccc2)(c2ccccc2)=N1
T/C [3]: 102 % of control
T/C [4]: 100 % of control
T/C [5]: 100 % of control

C=CCNC(=O)OCC
T/C [6]: 100 % of control
T/C [7]: 98 % of control

Cc1ccc(CNc2cc(C)ccn2)cc1
T/C [8]: 100 % of control
T/C [9]: 91 % of control

CCOC(=O)C(C(C)=O)C(C(C)=O)C(=O)OCC (centres undefined)
T/C (endpoint: mean survival time, dose: 75.0 mg/kg/injection, schedule: Q01DX009 (ip), vehicle: saline with Tween-80): 97 % of control
T/C [8]: 98 % of control
T/C (endpoint: mean survival time, dose: 150.0 mg/kg/injection, schedule: Q01DX009 (ip), vehicle: saline with Tween-80): 97 % of control
T/C [9]: 95 % of control
T/C (endpoint: mean survival time, dose: 300.0 mg/kg/injection, schedule: Q01DX009 (ip), vehicle: saline with Tween-80): 97 % of control
T/C [10]: 106 % of control

CCCCCCCCCCCCCCCCCC[Se]CCCCCCCCCCCCCCCCCC
T/C [6]: 89 % of control
T/C [7]: 91 % of control
T/C [11]: 95 % of control

N#CC(CC(=O)c1ccc(-c2ccccc2)cc1)c1ccccc1 (centres undefined)
T/C [8]: 91 % of control
T/C [9]: 91 % of control
T/C [10]: 95 % of control

CC1=C2CC3CCC(C)C2(CC1)C3(C)C (centres undefined)
T/C (endpoint: mean survival time, dose: 100.0 mg/kg/injection, schedule: Q04DX002 (ip), vehicle: Klucel (hydroxypropylcellulose) (HPC)): 111 % of control
T/C [3]: 96 % of control
T/C (endpoint: mean survival time, dose: 200.0 mg/kg/injection, schedule: Q04DX002 (ip), vehicle: Klucel (hydroxypropylcellulose) (HPC)): 96 % of control
T/C [4]: 98 % of control
T/C (endpoint: mean survival time, dose: 400.0 mg/kg/injection, schedule: Q04DX002 (ip), vehicle: Klucel (hydroxypropylcellulose) (HPC)): 96 % of control
T/C [5]: 106 % of control

CN(C)CCNc1ccc(CO)c2sc3ccc(O)cc3c(=O)c12
T/C (endpoint: median survival time, dose: 25.0 mg/kg/injection, schedule: Q01DX005 (ip), vehicle: saline with Tween-80): 107 % of control
T/C (endpoint: median survival time, dose: 72.0 mg/kg/injection, schedule: Q01DX005 (ip), vehicle: saline with Tween-80): 155 % of control
T/C (endpoint: median survival time, dose: 100.0 mg/kg/injection, schedule: Q01DX005 (ip), vehicle: saline with Tween-80): 212 % of control
T/C (endpoint: median survival time, dose: 120.0 mg/kg/injection, schedule: Q01DX005 (ip), vehicle: saline with Tween-80): 183 % of control
T/C (endpoint: median survival time, dose: 333.33 mg/kg/injection, schedule: Q01DX005 (ip), vehicle: saline with Tween-80): 112 % of control
T/C (endpoint: median survival time, dose: 400.0 mg/kg/injection, schedule: Q01DX005 (ip), vehicle: saline with Tween-80): 113 % of control and 97 % of control
T/C (endpoint: median survival time, dose: 555.55 mg/kg/injection, schedule: Q01DX005 (ip), vehicle: saline with Tween-80): 111 % of control

COC(=O)CC(C)Cc1ccc(OC)c(OC)c1 (centres undefined)
T/C (endpoint: mean survival time, dose: 100.0 mg/kg/injection, schedule: Q01DX009 (ip), vehicle: saline): 97 % of control
T/C [8]: 97 % of control
T/C (endpoint: mean survival time, dose: 200.0 mg/kg/injection, schedule: Q01DX009 (ip), vehicle: saline): 95 % of control
T/C [9]: 100 % of control
T/C (endpoint: mean survival time, dose: 400.0 mg/kg/injection, schedule: Q01DX009 (ip), vehicle: saline): 86 % of control
T/C [10]: 96 % of control

O=C1NCCC/C1=N/Nc1ccccc1
T/C [12]: 100 % of control
T/C [6]: 96 % of control
T/C [1]: 108 % of control
T/C [7]: 96 % of control
T/C [2]: 112 % of control
T/C [11]: 91 % of control

NNS(=O)(=O)c1ccccc1
T/C (endpoint: mean survival time, dose: 25.0 mg/kg/injection, schedule: Q04DX003 (ip), vehicle: saline with Tween-80): 97 % of control
T/C [13]: 97 % of control
T/C [8]: 94 % of control

NC(N)=N/N=C/c1ccc(-c2ccccc2)cc1
T/C (endpoint: mean survival time, dose: 6.25 mg/kg/injection, schedule: Q01DX001 (ip), vehicle: saline with Tween-80): 95 % of control
T/C (endpoint: mean survival time, dose: 12.5 mg/kg/injection, schedule: Q01DX001 (ip), vehicle: saline with Tween-80): 109 % of control
T/C (endpoint: mean survival time, dose: 25.0 mg/kg/injection, schedule: Q01DX001 (ip), vehicle: saline with Tween-80): 100 % of control

Cc1ccccc1NCS(=O)(=O)O
T/C [3]: 101 % of control
T/C [4]: 104 % of control
T/C [5]: 98 % of control

CN(C)c1cc(C(C)(C)C)nc(C(C)(C)C)c1
T/C (endpoint: mean survival time, dose: 12.5 mg/kg/injection, schedule: Q04DX002 (ip), vehicle: saline): 111 % of control
T/C (endpoint: mean survival time, dose: 25.0 mg/kg/injection, schedule: Q04DX002 (ip), vehicle: saline with Tween-80): 98 % of control
T/C (endpoint: mean survival time, dose: 25.0 mg/kg/injection, schedule: Q04DX002 (ip), vehicle: saline): 118 % of control
T/C [12]: 95 % of control
T/C (endpoint: mean survival time, dose: 50.0 mg/kg/injection, schedule: Q04DX002 (ip), vehicle: saline): 100 % of control
T/C [1]: 95 % of control

CC(=O)c1cc2c(cc1C(C)C)CC[C@H]1[C@](C)(C#N)CCC[C@]21C
T/C (endpoint: mean survival time, dose: 25.0 mg/kg/injection, schedule: Q01DX009 (ip), vehicle: saline with Tween-80): 104 % of control
T/C (endpoint: mean survival time, dose: 50.0 mg/kg/injection, schedule: Q01DX009 (ip), vehicle: saline with Tween-80): 90 % of control
T/C [6]: 98 % of control
T/C [8]: 87 % of control

O=C1CCC2(CCC(=O)O2)O1
T/C [3]: 94 % of control
T/C [4]: 100 % of control
T/C [5]: 93 % of control

O=C(c1ccccc1)C1OC1c1ccc(Cl)cc1 (centres undefined)
T/C [13]: 96 % of control
T/C [8]: 102 % of control
T/C [9]: 106 % of control
